This note sets out measurements from patent US20220289728A1, “MODULATORS OF TREX1” (Constellation Pharmaceuticals, Inc., priority 2019, published 2022).

As usually defined, the IC50 is the concentration needed to halve the response being measured. A lower IC50 goes with inhibition by little substance. The term EC50 denotes the concentration at which the effect is half-maximal.

One experiment concerns the target T1, full length human TREX1 (Homo sapiens, UniProt Q9NSU2).
T1 construct: N-terminally His-Tev tagged full length human TREX1; His-TEV (His tag with TEV site) (N); made in house; host or cells: E. coli
T1 sequence (Q9NSU2 1-314): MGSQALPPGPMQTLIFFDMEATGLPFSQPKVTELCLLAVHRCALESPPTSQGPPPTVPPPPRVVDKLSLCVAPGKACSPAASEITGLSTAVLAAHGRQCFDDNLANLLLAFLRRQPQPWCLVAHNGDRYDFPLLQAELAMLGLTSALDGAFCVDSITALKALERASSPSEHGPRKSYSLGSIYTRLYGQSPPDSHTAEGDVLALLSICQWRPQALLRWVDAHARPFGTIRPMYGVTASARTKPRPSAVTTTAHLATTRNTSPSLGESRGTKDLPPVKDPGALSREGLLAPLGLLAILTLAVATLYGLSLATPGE
In words: TREX1 Biochemical Assay (fluorescence, dsDNA substrate degradation). Conditions: 150 pM TREX1, 60 nM dsDNA substrate, 25 minutes at room temperature. As for the experimental part: Degradation of the dsDNA liberates free fluorophore to produce a fluorescent signal. Specifically, 7.5 μL of N-terminally His-Tev tagged full length human TREX1 (expressed in E. coli and purified in house) in reaction buffer (50 mM Tris (pH 7.4), 150 mM NaCl, 2 mM DTT, 0.1 mg/mL BSA, 0.01% (v/v) Tween-20 and 100 mM MgCl2) was added to a 384-well Black ProxiPlate Plus (Perkin Elmer) which already contained compound (150 nL) at varying concentrations as a 10 point dose-response in DMSO. To this was added 7.5 μL of dsDNA substrate (Strand A: 5′ TEX615/GCT AGG CAG 3′; Strand B: 5′ CTG CCT AGC/IAbRQSp (Integrated DNA Technologies)) in reaction buffer. Final concentrations were 150 pM TREX1, 60 nM dsDNA substrate in reaction buffer with 1.0% DMSO (v/v). After 25 minutes at room temperature, reactions were quenched by the addition of 5 μL of stop buffer (same as reaction buffer plus 200 mM EDTA). Final concentrations in the quenched reaction were 112.5 pM TREX1, 45 nM DNA and 50 mM EDTA in a volume of 20 μL. After a 5-minute incubation at room temperature, plates were read in a laser sourced Envision (Perkin-Elmer), measuring fluorescence at 615 nm following excitation w/570 nm light. IC50 values were calculated by comparing the measured fluorescence at 615 nm ratio relative to control wells pre-quenched w/stop buffer (100% inhibition) and no inhibitor (0% inhibition) controls as using non-linear least square four parameter fits and either Genedata or GraphPad Prism (GraphPad Software, Inc.).

Experiment [1] addresses T2, human TREX2 (residues M44-A279) (Homo sapiens, UniProt Q9BQ50).
T2 construct: human TREX2 (residues M44-A279, expressed in E. coli); His-TEV (His tag with TEV site) (N); made in house; host or cells: E. coli
T2 sequence (Q9BQ50 44-279 isoform Q9BQ50-1): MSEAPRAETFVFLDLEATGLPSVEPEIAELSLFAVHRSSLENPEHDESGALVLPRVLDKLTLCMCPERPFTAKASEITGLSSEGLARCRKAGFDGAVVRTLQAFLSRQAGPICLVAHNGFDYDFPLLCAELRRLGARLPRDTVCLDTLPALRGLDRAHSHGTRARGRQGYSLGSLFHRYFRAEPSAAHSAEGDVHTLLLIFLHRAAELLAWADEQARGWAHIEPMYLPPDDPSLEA
In words: TREX2 Biochemical Assay (fluorescence, dsDNA substrate degradation). Conditions: 2.5 nM TREX2, 60 nM dsDNA substrate, 25 minutes at room temperature. As for the experimental part:
Degradation of the dsDNA liberates free fluorophore to produce a fluorescent signal. Specifically, 7.5 μL of N-terminally His-Tev tagged human TREX2 (residues M44-A279, expressed in E. coli and purified in house) in reaction buffer (50 mM Tris (pH 7.4), 150 mM NaCl, 2 mM DTT, 0.1 mg/mL BSA, 0.01% (v/v) Tween-20 and 100 mM MgCl2) was added to a 384-well Black ProxiPlate Plus (Perkin Elmer) which already contained compound (150 nL) at varying concentrations as a 10 point dose-response in DMSO. To this was added 7.5 μL of dsDNA substrate (Strand A: 5′ TEX615/GCT AGG CAG 3′; Strand B: 5′ CTG CCT AGC/IAbRQSp (IDT)) in reaction buffer. Final concentrations were 2.5 nM TREX2, 60 nM dsDNA substrate in reaction buffer with 1.0% DMSO (v/v). After 25 minutes at room temperature, reactions were quenched by the addition of 5 μL of stop buffer (same as reaction buffer plus 200 mM EDTA). Final concentrations in the quenched reaction mixture were […] TREX2, 45 nM DNA and 50 mM EDTA in a volume of 20 μL. After a 5-minute incubation at room temperature, plates were read in a laser sourced Envision (Perkin-Elmer), measuring fluorescence at 615 nm following excitation w/570 nm light. IC50 values were calculated by comparing the measured fluorescence at 615 nm ratio relative to control wells pre-quenched w/stop buffer (100% inhibition) and no inhibitor (0% inhibition) controls as using non-linear least square four parameter fits and either Genedata or GraphPad Prism (GraphPad Software, Inc.).

The subject of another experiment is HCT116 dual cells. Put plainly: HCT116 Cell Assay (Lucia luciferase reporter of Type I interferon induction). Format: cell-based, human. The conditions noted are these: pBR322/BstNI DNA transfection, Lucia luciferase at 48 h, relative to 10 uM compound 39. The source says:
HCT116 dual cells (Invivogen, San Diego, Calif., USA) are derived from the human HCT116 colorectal carcinoma cell line. Cells have been selected for the stable integration of SEAP and Luciferase reporter genes, which expression is under the control of 5 tandem response elements for NF-KB/AP1 and STAT1/STAT2, respectively. The cell line was used to monitor Type I interferon induction and subsequent signaling by measuring the activity of the Lucia luciferase secreted in the culture medium.
HCT116 cells were plated in 96-well plate(s) at 40,000 cells/well in 100 uL DMEM supplemented with 10% FBS and 25 mM Hepes (pH 7.2-7.5). After overnight settling, cells were treated with TREX1i for 4 h (maximum DMSO fraction was 0.1%) before 1.25 ug/mL pBR322/BstNI restriction digest (New England Biolabs, Ipswich, Mass., USA) was transfected with Lipofectamine LTX (ThermoFisher, Grand Island, N.Y., USA), according to product manual recommendations. Briefly, Lipofectamine LTX (0.4 uL/well) was diluted in OptiMEM (5 uL/well). pBR322/BstNI (100 ng/well) was diluted in OptiMEM (5 uL/well) before Plus reagent (0.1 uL/100 ng DNA) was added. After 5 min incubation at room temperature, the DNA mixture was mixed dropwise with the diluted Lipofectamine LTX. After an additional 10 min incubation, the transfection mix (10 uL/well) was added to the cells. Cells were maintained at 37° C. for 48 h before monitoring the Lucia Luciferase activity from the cell culture medium. EC50 values were calculated by comparing the measured luminescence relative to 10 uM compound 39 (100% inhibition) and no inhibitor (0% inhibition) controls using non-linear least-squares four parameter fits in either Genedata Screener or GraphPad Prism (GraphPad Software, Inc.).
(In general: Reporter assays use an easily measured gene product as a stand-in for the process of interest.)

Setting [2] is: Homo sapiens, HCT-116, 4 h pre-treatment.

With `CN(c1nc(C(=O)Nc2cnoc2)c(O)c(=O)n1C)C(c1ccccc1)c1cccc(C#N)c1` (single isomer, unassigned) [Example 50], the IC50 is under 100 nM at full length human TREX1 and under 1000 nM in experiment [1]. The EC50 in the experiment on HCT116 dual cells (setting [2]) is under 1000 nM.
Turning to `CN(c1nc(C(=O)Nc2cnoc2)c(O)c(=O)n1C)C(c1ccccc1)c1cccc(C#N)c1` (single isomer, unassigned) [Example 51], the values for the IC50 (against full length human TREX1; in experiment [1]) were under 100 nM and under 1000 nM, respectively. Moreover, in the experiment on HCT116 dual cells (4 h pre-treatment), the 50% effective concentration (EC50) is 1000 to 10000 nM.
Consider `CN(c1nc(C(=O)Nc2cnoc2)c(O)c(=O)n1C)C(c1ccccc1)c1ncccc1Cl` (single isomer, unassigned) [Example 53], for which the IC50 at full length human TREX1 is under 100 nM; in experiment [1] it was under 1000 nM. In the experiment with HCT116 dual cells (setting [2]), the EC50 was under 1000 nM.
In the case of `CN(c1nc(C(=O)Nc2cnoc2)c(O)c(=O)n1C)C(c1ccccc1)c1ncccc1Cl` (single isomer, unassigned) [Example 54], the IC50 at full length human TREX1 is under 100 nM; in experiment [1], under 1000 nM. Also, the EC50 with HCT116 dual cells (4 h pre-treatment) is under 1000 nM.
As for `CN(c1nc(C(=O)Nc2cnoc2)c(O)c(=O)n1C)C(c1ccccn1)c1ccccc1Cl` (single isomer, unassigned) [Example 56], the IC50 was under 100 nM against full length human TREX1 and under 1000 nM in experiment [1]. The EC50 with HCT116 dual cells (setting [2]) is under 1000 nM.
Consider `CN(c1nc(C(=O)Nc2cnoc2)c(O)c(=O)n1C)C(c1ccccn1)c1ccccc1Cl` (single isomer, unassigned) [Example 57], for which the IC50 against full length human TREX1 was under 100 nM; in experiment [1], under 1000 nM. The EC50 in the experiment with HCT116 dual cells (4 h pre-treatment) is under 1000 nM.
`Cc1cccnc1C(c1ccccc1)N(C)c1nc(C(=O)Nc2cnoc2)c(O)c(=O)n1C` (single isomer, unassigned) [Example 58]: the IC50 is under 100 nM on full length human TREX1 and 1000 to 10000 nM in experiment [1]. For the same compound, in the experiment on HCT116 dual cells (setting [2]), the EC50 is 1000 to 10000 nM.
Consider `Cc1cccnc1C(c1ccccc1)N(C)c1nc(C(=O)Nc2cnoc2)c(O)c(=O)n1C` (single isomer, unassigned) [Example 59], for which the IC50 against full length human TREX1 was under 100 nM; in experiment [1], under 1000 nM. Moreover, in the experiment with HCT116 dual cells (4 h pre-treatment), the EC50 was under 1000 nM.
For the compound `CN(c1nc(C(=O)Nc2cnoc2)c(O)c(=O)n1C)C(c1ccccn1)c1c(Cl)cccc1Cl` (single isomer, unassigned) [Example 60], the results for the IC50 (at full length human TREX1; in experiment [1]) were under 100 nM and 1000 to 10000 nM, respectively. For the same compound, in the experiment with HCT116 dual cells (setting [2]), the EC50 lay in the range of 1000 to 10000 nM.
Turning to `CN(c1nc(C(=O)Nc2cnoc2)c(O)c(=O)n1C)C(c1ccccn1)c1c(Cl)cccc1Cl` (single isomer, unassigned) [Example 61], the IC50 was under 100 nM against full length human TREX1 and under 1000 nM in experiment [1]. In the experiment with HCT116 dual cells (4 h pre-treatment), the EC50 was under 1000 nM.
Regarding `Cc1cccc(Cl)c1C(c1ccccn1)N(C)c1nc(C(=O)Nc2cnoc2)c(O)c(=O)n1C` (single isomer, unassigned) [Example 62], the IC50 against full length human TREX1 was under 100 nM; in experiment [1], under 1000 nM. The EC50 in the experiment with HCT116 dual cells (setting [2]) was under 1000 nM.
As for `Cc1cccc(Cl)c1C(c1ccccn1)N(C)c1nc(C(=O)Nc2cnoc2)c(O)c(=O)n1C` (single isomer, unassigned) [Example 63], the IC50 on full length human TREX1 is under 100 nM; in experiment [1] it was under 1000 nM. Moreover, the EC50 in the experiment on HCT116 dual cells (4 h pre-treatment) was 1000 to 10000 nM.
Consider `CN(c1nc(C(=O)Nc2cnoc2)c(O)c(=O)n1C)C(c1ccccc1Cl)C1CC1` (single isomer, unassigned) [Example 68], for which the IC50 on full length human TREX1 is under 100 nM; in experiment [1], under 1000 nM. Besides, in the experiment with HCT116 dual cells (setting [2]), the EC50 was under 1000 nM.
In the case of `CN(c1nc(C(=O)Nc2cnoc2)c(O)c(=O)n1C)C(c1ccccc1Cl)C1CC1` (single isomer, unassigned) [Example 69], the IC50 was under 100 nM against full length human TREX1 and under 1000 nM in experiment [1]. In the experiment on HCT116 dual cells (4 h pre-treatment), the EC50 was under 1000 nM.
Consider `CC(c1c(Cl)cccc1Cl)N(C)c1nc(C(=O)Nc2cnoc2)c(O)c(=O)n1C` (single isomer, unassigned) [Example 70], for which the IC50 is under 100 nM against full length human TREX1 and under 1000 nM in experiment [1]. Further, the EC50 with HCT116 dual cells (setting [2]) was in the range of 1000 to 10000 nM.
On to `CC(c1c(Cl)cccc1Cl)N(C)c1nc(C(=O)Nc2cnoc2)c(O)c(=O)n1C` (single isomer, unassigned) [Example 71], for which the values for the IC50 (at full length human TREX1; in experiment [1]) were under 100 nM and under 1000 nM, respectively. The EC50 with HCT116 dual cells (4 h pre-treatment) was under 1000 nM.
As to `Cc1ncc(C(c2ccccc2Cl)N(C)c2nc(C(=O)Nc3cnoc3)c(O)c(=O)n2C)cn1` (single isomer, unassigned) [Example 81], the 50% inhibitory concentration (IC50) on full length human TREX1 was under 100 nM; in experiment [1] it was under 1000 nM. Moreover, in the experiment on HCT116 dual cells (setting [2]), the EC50 was under 1000 nM.
Regarding `CN(c1nc(C(=O)Nc2cnoc2)c(O)c(=O)n1C)C(c1ccccc1)c1ccccc1C(F)(F)F` (single isomer, unassigned) [Example 83], the IC50 against full length human TREX1 is under 100 nM; in experiment [1], under 1000 nM. For the same compound, in the experiment with HCT116 dual cells (setting [2]), the EC50 is under 1000 nM.
Turning to `CN(c1nc(C(=O)Nc2cnoc2)c(O)c(=O)n1C)C(c1ccccc1)c1ccccc1C(F)(F)F` (single isomer, unassigned) [Example 84], the results for the IC50 (against full length human TREX1; in experiment [1]) were under 100 nM and under 1000 nM, respectively. In addition, the EC50 in the experiment on HCT116 dual cells (4 h pre-treatment) is under 1000 nM.
